According to patent publication US20260335282A1, “NOVEL 3-ARYLIDENE-2-INDOLINONE DERIVATIVES FOR THERAPEUTIC USE” (ISTANBUL UNIVERSITESI REKTORLUGU, priority 2022, published 2026):
Read-outs that look alike come from different tables or passages of the source.

Legend:
MCF-7 cells = experiment: MTT cytotoxicity, breast cancer cells MCF-7; type: cell-based, human; conditions: MTT
Summary of the method: (§1)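 Viability was quantified by MTT reduction following 48 and/or 72 h compound exposure at four concentrations (0.1, 1, 5, 10 μM). Values are percentages of DMSO-treated controls, with IC50 fitted from dose-response data.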

HUVEC cells = experiment: MTT cytotoxicity, healthy cells HUVEC; type: cell-based, human; conditions: for Selectivite Index (SI), HUVEC (Table 1): HUVEC vs breast or kidney cancer cells, cancer line not given; for IC50: MTT
Summary of the method: as §1

HT-29 cells = experiment: MTT cytotoxicity, colon cancer cells HT-29; type: cell-based, human; conditions: MTT
Summary of the method: (§2)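 Cells were seeded at 5000 per well and treated next day with compound at 0.1, 1, 5 and 10 μM (final) for 48 and/or 72 h, with matched DMSO controls. MTT was added for 4 h and formazan was dissolved in DMSO and read at 570/630 nm. % viability against control gave IC50 from dose-response curves.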

A549 cells = experiment: MTT cytotoxicity, lung cancer cells A549; type: cell-based, human
Summary of the method: as §1

MCF-10F/Beas2b cells = experiment: MTT cytotoxicity, healthy cells MCF-10F/Beas2b; type: cell-based, human; conditions: MCF-10F/Beas2b vs breast or kidney cancer cells; cancer line not given
Summary of the method: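 Cells exposed to compounds at 0.1, 1, 5 and 10 μM (DMSO vehicle-matched controls) for 48 and/or 72 h, then MTT 4 h; formazan in DMSO read at 570/630 nm. Viability as % of control; IC50 from dose-response curves. Healthy cells tested at 10-fold the cancer-cell IC50 concentration.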

human cancer cells = experiment: MTT cell viability, human cancer cells overall; type: cell-based; conditions: cell line as discussed at the place
Source text: The cytotoxicity, general tyrosine kinase inhibitory effects and cell death (apoptosis/necrosis) assays of 1-benzyl-3-(1H-indol-3-ylmethylidene)-1,3-dihydro-2H-indol-2-one derivatives (Formula 5) of the present invention are studied by the following methods. […] HUVEC (human umbilical vein endothelial cell), MCF-10F (human breast epithelial cell) and Beas2b (human lung bronchial epithelial cell) cell lines have been used as healthy control cells in MTT experiments.
Beas2b (human lung bronchiole epithelial cell) and HEK293 (renal tubule epithelium) cells used as normal cell lines were cultured in RPMI medium, and HUVEC (human umbilical cord endothelial cells) and MCF-10F (human breast epithelial cell) cells are cultured in DMEM medium containing 100 µg/ml penicillin/streptomycin. The cells, which covered 70% of the culture flask, are washed with phosphate buffer and then removed from the surface of the flask by application of trypsin-ethylenediamine tetraacetic acid (Trypsin-EDTA; 0.25%) solution, passaged, counted and seeded on appropriate plates before each experiment. Cells are treated with a total of 45 2-indolinone compounds (5) at concentrations of 0.1, 1, 5 and 10 μM. Stock compounds are prepared in 1 ml dimethylsulfoxide (DMSO) and 4 different dilutions were prepared with medium and performed to the cells. Control group cells are treated with DMSO at a similar concentration to the experimental groups.
MTT (3-(4,5-dimethylthiazol-2-yl)-2,5-diphenyl-2H-tetrazolium bromide) colorimetric assay provides quantitation of viable cells with ongoing mitochondrial activity in culture medium. According to the standard procedure in cell culture conditions, cells are maintained in RPMI-1640 and DMEM culture media containing 10% FBS and 1% penicillin/streptomycin. The trypan blue test is used for cell counts.
The effects of 45 2-indolinone compounds (5) on cell viability in all cancer cell lines are investigated by MTT assay. Cells are seeded in a 96-well flat bottom plate with 5000 cells in each well and 2-indolinone compounds (5) at concentrations of 0.1, 1, 5 and 10 μM are performed to the cells the next day. After 48 and/or 72 hours following treatment with 2-indolinone compounds, 50 μl of the supernatant is slowly discarded (as it was acid medium) and MTT at a concentration of 5 mg/ml is added to each well in a volume of 10 μl. After incubation for 4 hours, the formazan crystals formed in the wells are dissolved by adding 100 μl DMSO and the optical density is read at 570 nm test wavelength and 630 nm reference wavelength. Cell viability is expressed as % cell viability by comparing the absorbance of control and test wells. IC50 value is calculated from the dose-response curves prepared for each compound. In addition, the possible DMSO effect is eliminated by preparing negative control wells compatible with the amount of DMSO contained in the compounds. To understand the reaction of the compounds with MTT, cell-free (MTT+compounds) negative controls are prepared at the concentrations used (Mosmann, 1983). […] The absorbance values obtained are compared to the control and statistically evaluated by unpaired t-test using “Graphpad Prism 5.04” software. “P<0.05” is accepted as significant. When evaluating cytotoxic effects, the present inventors aim for the inventive compounds to be effective in cancer cells and ineffective in healthy cells. […]

A498 cells [1] = experiment: MTT cytotoxicity, kidney cancer cells A498; type: cell-based, human; conditions: for IC50: MTT
Summary of the method: as §1

HCT-116 cells = experiment: MTT cytotoxicity, colon cancer cells HCT-116; type: cell-based, human
Summary of the method: as §2

CAKI-1 cells = experiment: MTT cytotoxicity, kidney cancer cells CAKI-1; type: cell-based, human
Summary of the method: as §1

MIAPaCa-2 cells [2] = experiment: MTT cytotoxicity, pancreas cancer cells MIAPaCa-2; type: cell-based, human
Summary of the method: as §2

MDA-MB-231 cells = experiment: MTT cytotoxicity, breast cancer cells MDA-MB-231; type: cell-based, human; conditions: for IC50: MTT, no * mark (incubation time not given)
Summary of the method: as §1

[3] = test system: general tyrosine kinase activity in A498 kidney cancer cells; experiment: General tyrosine kinase activity (ELISA) in A498 cells; type: cell-based, human; conditions: 72 h, IC50 concentration
Protocol: Takara Universal Tyrosine Kinase Assay Kit is used to determine the effects of 11 2-indolinone compounds (Y1, Y2, Y3, Y4, Y5, Y8, […], […], Y21, Y23, 20C, 22C) on general tyrosine kinase activity in cancer cells. Cells are seeded in 6-well plates (4.10^5 cells/well) and the IC50 concentration of each selected molecule is performed to the cells for 48 or 72 hours. Cells in the control group are incubated with medium only. At the end of the incubation period, the cells in each well are washed with PBS and cells are removed from the wells using a cell scraper via 1 ml of the extraction buffer in the kit. The cell lysate is transferred to ependorf tubes and centrifuged at 10.000 g for 10 minutes at +4° C. and the supernatant is used as a sample for activity determination. After the extracts obtained from the control and experimental groups are diluted 1:25, 40 μl extracts is transferred to two wells in the 96-well plate in the kit. In addition, the standard solution in the kit is diluted according to the kit instructions and each concentration is transferred 40 μl into three wells. 10 μl of 40 mM ATP-2Na solution is added to all wells and the plate is incubated at 37° C. for 30 minutes. […] The reaction is finished by adding 100 μl of stop solution to each well and the optical density in each well is measured at 405 nm with a microplate reader (BioTek, USA). The tyrosine kinase activity in each sample is calculated from the standard curve obtained from the absorbance values of the standard solutions with the kit (Chan W Y, Lau P M, Yeung K W, Kong S K. The second generation tyrosine kinase inhibitor dasatinib induced eryptosis in human erythrocytes—An in vitro study. Toxicol Lett. 2018; 295:10-21). […]
The effects of 11 2-indolinone compounds (Y1, Y2, Y3, Y4, Y5, Y8, Y14, Y21, Y23, 20C and 22C) having the structure of formula (5), which are prominent with their cytotoxicity in A498, MIAPaCa-2 and HCT-116 cancer cell lines and nontoxic properties in healthy cells, on general tyrosine kinase activity in cancer cells are determined.

A498 cells [4] = experiment: Apoptosis/necrosis detection, Annexin V/PI flow cytometry, A498; type: cell-based, human; conditions: A498
Protocol: (§3) After incubation with 2-indolinone compounds (IC50 μM concentration; 48 and/or 72 hours), cells are washed twice with PBS and the cell pellet is suspended in Annexin V binding buffer. After this incubation, cells are incubated with FITC-conjugated Annexin V and propidium iodine staining solution for 15 minutes in the dark and at room temperature. Then, cells are analyzed by flow cytometry (Beckman coulter, Navios) (Wlodkowic, D., Skommer, J, Darzynkiewicz, Z. 2009. Flow cytometry-based apoptosis detection, Methods Mol Biol., 559, 1-14).

MIAPaCa-2 cells [5] = experiment: Apoptosis/necrosis detection, Annexin V/PI flow cytometry, MiaPaca-2; type: cell-based, human
Protocol: as §3

[6] = test system: BL6-B16 melanoma and E0771 breast cancer cells; conditions: Morigi et al. 2019; cited from earlier work
[7] = no * mark (incubation time not specified)
[8] = MTT, no * mark (incubation time not specified)
[9] = read-out: IC50, MDA-MB-231 (breast)

SMILES	IC50 (MCF-7 cells; [7]) [µM]	Selectivite Index (SI), HUVEC (Table 1) (HUVEC cells)	IC50 (HT-29 cells; [7]) [µM]	IC50 (A549 cells; [7]) [µM]	Selectivite Index (SI), MCF-10F/Beas2b (Table 1) (MCF-10F/Beas2b cells)	IC50 (A498 cells [1]; [7]) [µM]	IC50 (HCT-116 cells; [7]) [µM]	IC50 (CAKI-1 cells; [7]) [µM]	IC50 (MIAPaCa-2 cells [2]; [8]) [µM]	IC50 (MDA-MB-231 cells; [9]) [µM]	other results
Cc1cccc(CN2C(=O)/C(=C\c3c[nH]c4ccccc34)c3cccc(Cl)c32)c1 [27C]	3.67	1.28	> 10	> 10	> 12.34	2.4	> 10	> 10	> 10	0.81	IC50 (HUVEC cells; *: effective 72 hours after incubation): 1.04 µM; potency/selectivity compared with sunitinib malate (human cancer cells): much more potent and have higher SI values than the reference compound sunitinib malate; selectivity index (SI) (MDA-MB-231 cells; MCF-10F vs MDA-MB-231): > 12
Cn1cc(/C=C2\C(=O)N(Cc3ccccc3)c3ccc(Cl)cc32)c2ccccc21 [Y23]	4.9	4.70	4.18	> 10	> 11.23	0.89	1.62	4.98	> 10	4.72	IC50 (HUVEC cells; [7]): 4.18 µM; selectivity index (A498 cells [1]; MCF-10F/Beas2b vs A498): > 11; general tyrosine kinase activity compared to control [3]: did not cause a significant change
CCN(CC)CCNC(=O)c1c(C)[nH]c(/C=C2\C(=O)Nc3ccc(F)cc32)c1C [Sunitinib malate, reference compound]						3.71			1.18		IC50 (MCF-7 cells; Homo sapiens, MCF7, no * mark (incubation time not given)): 9.78 µM; IC50 (HUVEC cells; Homo sapiens, HUVEC, no * mark (incubation time not given)): 2.94 µM; IC50 (HT-29 cells; Homo sapiens, HT-29, no * mark (incubation time not given)): 2.94 µM; IC50 (A549 cells; Homo sapiens, A549, no * mark (incubation time not given)): > 10 µM; IC50 (A498 cells [1]; Homo sapiens, A498, 72 h, *: effective 72 hours after incubation): 3.46 µM; IC50 (A498 cells [1]; no * mark (incubation time not specified), listed as sunitinib malate): > 10 µM; IC50 (HCT-116 cells; Homo sapiens, HCT-116, no * mark (incubation time not given)): 1.78 µM; IC50 (CAKI-1 cells; Homo sapiens, CAKI-1, no * mark (incubation time not given)): 5.13 µM; necrosis compared to control (A498 cells [4]): no increase or decrease; viability, early apoptosis and late apoptosis compared to control (A498 cells [4]; Y3 at IC50, sunitinib malate 10 μM): 10 μM dose is found to be the most significant; IC50 (MIAPaCa-2 cells [2]; Homo sapiens, MIA PaCa-2, 72 h, MTT, *: effective 72 hours after incubation): 4.03 µM; IC50 (MIAPaCa-2 cells [2]; Homo sapiens, MIA PaCa-2, MTT, no * mark (incubation time not given)): 0.61 µM; necrosis compared to control (MIAPaCa-2 cells [5]; MiaPaca-2): did not cause necrosis; apoptosis (early and late) compared to control (MIAPaCa-2 cells [5]; MiaPaca-2, IC50 values): increase in apoptosis at IC50 values was statistically significant; IC50 (MDA-MB-231 cells; Homo sapiens, MDA-MB-231, read-out: IC50, MDA-MB-231 (breast)): > 10 µM
O=C1Nc2ccccc2/C1=C/c1nc2sccn2c1-c1ccncc1 [I]											tumor volume [6]: reduction in tumor volume
